Data reported in patent publication US9260429B2, “Pyrido[3,4-B]indoles and methods of use” (Medivation Technologies, Inc., priority 2008, dated 2016).
Read-outs that look alike come from different tables or passages of the source.

Assays:
[1] = molecular target: T1, human recombinant dopamine D2L receptor (Homo sapiens, UniProt P14416); assay: Dopamine D2L radioligand binding ([3H]Spiperone); settings: for inhibition at 3 µM: compound concentration 3 μM; for inhibition at 10 µM: compound concentration 10 μM
T1 construct: expressed in transfected cells; host or cells: CHO cells
T1 sequence (P14416 whole entry): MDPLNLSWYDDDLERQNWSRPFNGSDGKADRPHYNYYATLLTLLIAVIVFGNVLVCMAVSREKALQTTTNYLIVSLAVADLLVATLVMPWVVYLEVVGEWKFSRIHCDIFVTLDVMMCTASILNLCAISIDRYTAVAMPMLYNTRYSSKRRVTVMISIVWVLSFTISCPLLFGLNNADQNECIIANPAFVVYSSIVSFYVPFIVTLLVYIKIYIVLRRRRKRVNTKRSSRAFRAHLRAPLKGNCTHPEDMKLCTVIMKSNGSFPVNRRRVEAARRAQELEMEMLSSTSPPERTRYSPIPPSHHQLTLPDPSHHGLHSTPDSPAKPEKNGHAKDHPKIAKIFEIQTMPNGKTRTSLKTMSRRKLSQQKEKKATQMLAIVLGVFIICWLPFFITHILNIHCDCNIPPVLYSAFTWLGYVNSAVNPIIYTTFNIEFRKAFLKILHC
In short: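 CHO-expressed receptor in 50 mM Tris-HCl pH 7.4 with ascorbic acid, 0.001% BSA, 150 mM NaCl; 0.16 nM [3H]spiperone, 120 min at 25 °C; nonspecific binding with haloperidol.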

[2] = molecular target: T2, human recombinant serotonin (5-Hydroxytryptamine) 5-HT2C receptor (Homo sapiens, UniProt P28335); assay: Serotonin 5-HT2C radioligand binding ([3H]Mesulergine); settings: for inhibition at 0.003 µM: compound concentration 3 nM; for inhibition at 0.01 µM: compound concentration 10 nM; for inhibition at 0.03 µM: compound concentration 0.03 μM; for inhibition at 0.1 µM: compound concentration 0.1 μM; for inhibition at 0.3 µM: compound concentration 0.3 μM
T2 construct: expressed in transfected cells; host or cells: CHO-K1 cells
T2 sequence (P28335 33-458): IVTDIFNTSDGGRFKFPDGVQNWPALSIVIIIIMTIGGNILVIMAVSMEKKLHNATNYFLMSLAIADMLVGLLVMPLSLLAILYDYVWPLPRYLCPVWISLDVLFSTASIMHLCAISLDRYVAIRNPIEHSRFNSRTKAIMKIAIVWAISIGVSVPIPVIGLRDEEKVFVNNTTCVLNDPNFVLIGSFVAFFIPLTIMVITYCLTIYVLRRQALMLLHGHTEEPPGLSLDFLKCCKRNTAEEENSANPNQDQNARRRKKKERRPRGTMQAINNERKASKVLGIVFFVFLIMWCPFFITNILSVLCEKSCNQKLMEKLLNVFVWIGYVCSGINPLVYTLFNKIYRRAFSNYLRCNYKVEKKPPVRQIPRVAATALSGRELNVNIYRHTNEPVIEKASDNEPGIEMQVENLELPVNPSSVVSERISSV
Procedure: Compounds of the invention were incubated with 1 nM [^3H]Mesulergine for 60 minutes at 25° C. Non-specific binding was estimated in the presence of 1 μM Mianserin. Receptor proteins were filtered and washed, the filters were then counted to determine [^3H]Mesulergine specifically bound. […] Biochemical assay results are presented as the percent inhibition of specific binding in Table 5.

[3] = molecular target: T3, human recombinant serotonin (5-Hydroxytryptamine) 5-HT6 receptor (Homo sapiens, UniProt P50406); assay: Serotonin 5-HT6 radioligand binding ([3H]LSD); settings: for inhibition at 0.003 µM: compound concentration 3 nM; for inhibition at 0.01 µM: compound concentration 10 nM; for inhibition at 0.03 µM: compound concentration 0.03 μM; for inhibition at 0.1 µM: compound concentration 0.1 μM; for inhibition at 0.3 µM: compound concentration 0.3 μM
T3 construct: expressed in transfected cells; host or cells: human HeLa cells
T3 sequence (P50406 whole entry): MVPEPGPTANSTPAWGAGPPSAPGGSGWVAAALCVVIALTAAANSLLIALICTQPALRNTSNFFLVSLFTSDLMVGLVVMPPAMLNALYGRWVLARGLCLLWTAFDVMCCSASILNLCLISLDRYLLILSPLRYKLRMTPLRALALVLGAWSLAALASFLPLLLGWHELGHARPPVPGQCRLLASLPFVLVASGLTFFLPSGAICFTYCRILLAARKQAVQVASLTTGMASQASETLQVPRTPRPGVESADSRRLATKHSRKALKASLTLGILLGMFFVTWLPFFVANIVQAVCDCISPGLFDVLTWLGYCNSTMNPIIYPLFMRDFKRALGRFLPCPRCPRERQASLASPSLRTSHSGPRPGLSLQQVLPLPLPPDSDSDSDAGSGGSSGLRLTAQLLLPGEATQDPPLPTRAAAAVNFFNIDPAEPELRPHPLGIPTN
In short: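 Human 5-HT6 receptor expressed in HeLa cells, in Tris-HCl pH 7.4 with 150 mM NaCl, ascorbic acid and BSA. Compounds at 1 μM or lower (1% DMSO) incubated 120 min at 37° C with 1.5 nM [3H]LSD. Non-specific binding defined with serotonin; filter counting gives % inhibition of specific binding.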

[4] = molecular target: T4, human recombinant histamine H1 receptor (Homo sapiens, UniProt P35367); assay: Histamine H1 radioligand binding ([3H]Pyrilamine); settings: for inhibition at 3 µM: compound concentration 3 μM; for inhibition at 10 µM: compound concentration 10 μM
T4 construct: expressed in transfected cells; host or cells: CHO cells
T4 sequence (P35367 whole entry): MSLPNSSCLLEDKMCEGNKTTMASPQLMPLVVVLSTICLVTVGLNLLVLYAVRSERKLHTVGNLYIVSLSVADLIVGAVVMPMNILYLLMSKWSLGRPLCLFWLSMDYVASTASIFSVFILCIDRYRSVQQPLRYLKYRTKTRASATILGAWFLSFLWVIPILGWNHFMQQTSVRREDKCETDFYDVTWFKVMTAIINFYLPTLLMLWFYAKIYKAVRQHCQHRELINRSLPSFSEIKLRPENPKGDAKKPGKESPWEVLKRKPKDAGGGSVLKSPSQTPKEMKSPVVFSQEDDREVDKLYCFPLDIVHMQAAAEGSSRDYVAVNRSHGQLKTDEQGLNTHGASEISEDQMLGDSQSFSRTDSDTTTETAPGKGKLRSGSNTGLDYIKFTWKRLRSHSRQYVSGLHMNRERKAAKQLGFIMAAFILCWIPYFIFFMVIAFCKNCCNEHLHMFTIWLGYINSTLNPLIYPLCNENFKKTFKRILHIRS
In short: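 Binding to the human recombinant histamine H1 receptor, expressed in CHO cells, was measured in a modified Tris-HCl buffer (50 mM Tris-HCl, pH 7.4, 2 mM MgCl2, 100 mM NaCl, 250 mM Sucrose). Compounds were incubated with 1.2 nM [3H]Pyrilamine for 180 minutes at 25° C, with 1 μM pyrilamine defining non-specific binding. After filtration and washing, filter counts gave percent inhibition of specific binding.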

[5] = 2 h, 1 μM ligand conc., read-out: Percent Inhibition of ligand binding Dopamine (1 μM ligand conc.) D2L
[6] = 1 h, read-out: Percent Inhibition of ligand binding Serotonin (1 μM ligand concentration) 5-HT2C
[7] = 2 h, read-out: Percent Inhibition of ligand binding Serotonin (1 μM ligand concentration) 5-HT6
[8] = 1 μM, read-out: Binding data (Percentage Inhibition) Histamine Binding (1 μM) H1
[9] = compound concentration 1 μM, read-out: Percentage inhibition of ligand binding to D2L receptor
[10] = read-out: Percentage inhibition of ligand binding to D2L receptor
[11] = read-out: Percentage inhibition of ligand binding to 5-HT2C receptor
[12] = compound concentration 1 μM, read-out: Percentage inhibition of ligand binding to 5-HT2C receptor
[13] = read-out: Percentage inhibition of ligand binding to 5-HT6 receptor
[14] = compound concentration 1 μM, read-out: Percentage inhibition of ligand binding to 5-HT6 receptor
[15] = compound concentration 1 μM, read-out: Percentage inhibition of ligand binding to H1 receptor
[16] = read-out: Percentage inhibition of ligand binding to H1 receptor

`Cc1ccc(C(O)Cn2c3c(c4cc(C)ccc42)CCN(C)C3)cc1` (stereo not shown) [Compound 72] gave an inhibition at 1 µM [1, 5] of 24%, an inhibition at 1 µM [2, 6] of 89% and an inhibition at 1 µM [3, 7] of 61%. For the same compound, the inhibition at 1 µM [4, 8] was 55%.
`CCC1c2c(c3cc(Cl)ccc3n2CCc2ccc(F)cc2)CCN1C` (stereo not shown) [Compound 78] showed an inhibition at 1 µM [1, 5] of 11%, an inhibition at 1 µM [2, 6] of 101% and an inhibition at 1 µM [3, 7] of 48%. The inhibition at 1 µM [4, 8] was 71%.
For `CCC1c2c(c3cc(Cl)ccc3n2CC(C)(O)c2ccc(F)cc2)CCN1C` (stereo not shown) [Compound 79], the inhibition at 1 µM [1, 5] was 2%, the inhibition at 1 µM [2, 6] was 77% and the inhibition at 1 µM [3, 7] was 27%. The inhibition at 1 µM [4, 8] was 50%.
Compound `Cc1ccc(CCn2c3c(c4cc(Cl)ccc42)CCN(C)C3C)cn1` (stereo not shown) [Compound 80] has an inhibition at 1 µM [1, 5] of 5%, an inhibition at 1 µM [2, 6] of 79% and an inhibition at 1 µM [3, 7] of 23%. For the same compound, the inhibition at 1 µM [4, 8] was 66%.
For `CC1c2c(c3cc(Cl)ccc3n2CCc2ccc(F)cc2)CCN1C` (stereo not shown) [Compound 81], the inhibition at 1 µM [1, 5] was 21%, the inhibition at 1 µM [2, 6] was 88% and the inhibition at 1 µM [3, 7] was 96%. The inhibition at 1 µM [4, 8] was 80%.
With `C/C(=C\n1c2c(c3cc(Cl)ccc31)CCN(C)C2)c1ccc(F)cc1` [Compound 90, (E)-6-chloro-9-(2-(4-fluorophenyl)prop-1-enyl)-2-methyl-2,3,4,9-tetrahydro-1H-pyrido[3,4-b]indole] the inhibition at 1 µM [1, 5] was 36%, the inhibition at 1 µM [1, 9] was 39% and the inhibition at 3 µM [1, 10] was 70%. For the same compound, the inhibition at 10 µM [1, 10] was 91%, the inhibition at 1 µM [2, 6] was 99% and the inhibition at 0.003 µM [2, 11] was 22%. The inhibition at 0.01 µM [2, 11] was 37%, the inhibition at 0.03 µM [2, 11] was 65% and the inhibition at 0.1 µM [2, 11] was 82%. The inhibition at 0.3 µM [2, 11] was 93%, the inhibition at 1 µM [2, 12] was 99% and the inhibition at 1 µM [3, 7] was 98%. The inhibition at 0.003 µM [3, 13] was 16%, the inhibition at 0.01 µM [3, 13] was 32% and the inhibition at 0.03 µM [3, 13] was 58%. For the same compound, the inhibition at 0.1 µM [3, 13] was 81%, the inhibition at 0.3 µM [3, 13] was 94% and the inhibition at 1 µM [3, 14] was 98%. The inhibition at 1 µM [4, 8] was 29%, the inhibition at 1 µM [4, 15] was 48% and the inhibition at 3 µM [4, 16] was 76%. It also gave an inhibition at 10 µM [4, 16] of 94%.
Compound `C/C(=C\n1c2c(c3cc(C)ccc31)CCN(C)C2)c1ccc(F)cc1` [Compound 91, (E)-9-(2-(4-fluorophenyl)prop-1-enyl)-2,6-dimethyl-2,3,4,9-tetrahydro-1H-pyrido[3,4-b]indole] has an inhibition at 1 µM [1, 5] of 27%, an inhibition at 1 µM [1, 9] of 44% and an inhibition at 3 µM [1, 10] of 64%. The inhibition at 10 µM [1, 10] was 91%, the inhibition at 1 µM [2, 6] was 104% and the inhibition at 0.003 µM [2, 11] was 22%. The inhibition at 0.01 µM [2, 11] was 58%, the inhibition at 0.03 µM [2, 11] was 77% and the inhibition at 0.1 µM [2, 11] was 87%. For the same compound, the inhibition at 0.3 µM [2, 11] was 93%, the inhibition at 1 µM [2, 12] was 104% and the inhibition at 1 µM [3, 7] was 100%. For the same compound, the inhibition at 0.003 µM [3, 13] was 15%, the inhibition at 0.01 µM [3, 13] was 42% and the inhibition at 0.03 µM [3, 13] was 68%. It also gave an inhibition at 0.1 µM [3, 13] of 84%, an inhibition at 0.3 µM [3, 13] of 96% and an inhibition at 1 µM [3, 14] of 100%. The inhibition at 1 µM [4, 8] was 28%, the inhibition at 1 µM [4, 15] was 42% and the inhibition at 3 µM [4, 16] was 75%. For the same compound, the inhibition at 10 µM [4, 16] was 95%.
`Cc1ccc2c(c1)c1c(n2/C=C/c2ccccc2)CN(C)CC1` [Compound 92] gave an inhibition at 1 µM [1, 5] of 47%, an inhibition at 1 µM [1, 9] of 47% and an inhibition at 3 µM [1, 10] of 72%. The inhibition at 1 µM [2, 6] was 96%, the inhibition at 1 µM [2, 12] was 96% and the inhibition at 1 µM [3, 7] was 96%. For the same compound, the inhibition at 0.01 µM [3, 13] was 14%, the inhibition at 0.03 µM [3, 13] was 28% and the inhibition at 0.1 µM [3, 13] was 60%. The inhibition at 0.3 µM [3, 13] was 81%, the inhibition at 1 µM [3, 14] was 96% and the inhibition at 1 µM [4, 8] was 99%. For the same compound, the inhibition at 0.03 µM ([4]; compound concentration 0.03 μM, read-out: Percentage inhibition of ligand binding to H1 receptor) was 67%, the inhibition at 0.1 µM ([4]; compound concentration 0.1 μM, read-out: Percentage inhibition of ligand binding to H1 receptor) was 91% and the inhibition at 0.3 µM ([4]; compound concentration 0.3 μM, read-out: Percentage inhibition of ligand binding to H1 receptor) was 96%. For the same compound, the inhibition at 1 µM [4, 15] was 99%.
Compound `C/C(=C\n1c2c(c3cc(C)ccc31)CCN(C)C2)c1ccc(Cl)cc1` [Compound 97, 9-(2-(4-chlorophenyl)prop-1-enyl)-2,6-dimethyl-2,3,4,9-tetrahydro-1H-pyrido[3,4-b]indole] has an inhibition at 1 µM [1, 5] of 15%, an inhibition at 1 µM [2, 6] of 99% and an inhibition at 1 µM [3, 7] of 72%. The inhibition at 1 µM [4, 8] was 20%.
`C/C(=C\n1c2c(c3cc(Cl)ccc31)CCN(C)C2)c1ccc(Cl)cc1` [Compound 98, 6-chloro-9-(2-(4-chlorophenyl)prop-1-enyl)-2-methyl-2,3,4,9-tetrahydro-1H-pyrido[3,4-b]indole] was tested, and the inhibition at 1 µM [1, 5] was 32%, the inhibition at 1 µM [2, 6] was 103% and the inhibition at 1 µM [3, 7] was 79%. The inhibition at 1 µM [4, 8] was 40%.
